Test results reported in ChEMBL document CHEMBL1156482, “Molecular mechanism of action of monocyclam versus bicyclam non-peptide antagonists in the CXCR4 chemokine receptor” (J Biol Chem, 2007).
Calls of active or inactive are those of the source. No cut-off for these calls is given here.

Legend:
[1] = tested on: C-X-C chemokine receptor type 4 (Homo sapiens), P61073 [G207W]; test: (§1) Displacement of [125I]12G5 antibody from transmembrane domain 5 of human CXCR4 G207W mutant expressed in COS7 cells; format: cell-based; settings: COS-7
[2] = target: C-X-C chemokine receptor type 4 (Homo sapiens, UniProt P61073, G207W); test: as §1; format: cell-based, COS-7
[3] = tested on: Human immunodeficiency virus 1; test: Antiviral activity against HIV1 NL43 infected in U87.CD4 cells expressing human wild type CXCR4; format: functional, organism-based; settings: Human immunodeficiency virus 1, NL43, U87.CD4
[4] = tested on: C-X-C chemokine receptor type 4 (Homo sapiens), P61073 [V196A]; test: (§2) Antagonist activity at human CXCR4 V196A mutant expressed in COS7 cells coexpressing G protein Gqi4myr assessed as inhibition of CXCL12-induced phosphatidylinositol turnover; format: functional, cell-based; settings: COS-7
[5] = target: T1, C-X-C chemokine receptor type 4 (Homo sapiens, UniProt P61073, V196A); test: as §2; format: functional, cell-based, COS-7
[6] = tested on: Human immunodeficiency virus 1; test: Antiviral activity against HIV1 clinical isolate 10 infected in U87.CD4 cells expressing human CXCR4 D171ND262N mutant; format: functional, organism-based; settings: Human immunodeficiency virus 1, U87.CD4
[7] = tested on: Human immunodeficiency virus 1; test: Antiviral activity against HIV1 NDK infected in U87.CD4 cells expressing human CXCR4 H281A mutant; format: functional, organism-based; settings: Human immunodeficiency virus 1, NDK
[8] = target: C-X-C chemokine receptor type 4 (Homo sapiens, UniProt P61073, D262N); test: (§3) Antagonist activity at human CXCR4 D262N mutant expressed in COS7 cells coexpressing G protein Gqi4myr assessed as inhibition of CXCL12-induced phosphatidylinositol turnover; format: functional, cell-based, COS-7
[9] = tested on: C-X-C chemokine receptor type 4 (Homo sapiens), P61073 [D262N]; test: as §3; format: functional, cell-based; settings: COS-7
[10] = tested on: Human immunodeficiency virus 1; test: Antiviral activity against HIV1 NL43 infected in U87.CD4 cells expressing human CXCR4 D171N mutant; format: functional, organism-based; settings: Human immunodeficiency virus 1, NL43, U87.CD4
[11] = tested on: C-X-C chemokine receptor type 4 (Homo sapiens), P61073 [H113A]; test: (§4) Displacement of [125I]12G5 antibody from transmembrane domain 3 of human CXCR4 H113A mutant expressed in COS7 cells; format: cell-based; settings: COS-7
[12] = target: C-X-C chemokine receptor type 4 (Homo sapiens, UniProt P61073, H113A); test: as §4; format: cell-based, COS-7
[13] = target: C-X-C chemokine receptor type 4 (Homo sapiens, UniProt P61073, H281A); test: (§5) Antagonist activity at human CXCR4 H281A mutant expressed in COS7 cells coexpressing G protein Gqi4myr assessed as inhibition of CXCL12-induced phosphatidylinositol turnover; format: functional, cell-based, COS-7
[14] = tested on: C-X-C chemokine receptor type 4 (Homo sapiens), P61073 [H281A]; test: as §5; format: functional, cell-based; settings: COS-7
[15] = target: C-X-C chemokine receptor type 4 (Homo sapiens, UniProt P61073, F172A); test: (§6) Displacement of [125I]12G5 antibody from transmembrane domain 4 of human CXCR4 F172A mutant expressed in COS7 cells; format: cell-based, COS-7
[16] = tested on: C-X-C chemokine receptor type 4 (Homo sapiens), P61073 [F172A]; test: as §6; format: cell-based; settings: COS-7
[17] = tested on: Human immunodeficiency virus 1; test: Antiviral activity against HIV1 clinical isolate 10 infected in U87.CD4 cells expressing human CXCR4 D262N mutant; format: functional, organism-based; settings: Human immunodeficiency virus 1, U87.CD4
[18] = tested on: C-X-C chemokine receptor type 4 (Homo sapiens), P61073 [Y255A]; test: (§7) Displacement of [125I]12G5 antibody from transmembrane domain 6 of human CXCR4 Y255A mutant expressed in COS7 cells; format: cell-based; settings: COS-7
[19] = target: T2, C-X-C chemokine receptor type 4 (Homo sapiens, UniProt P61073, Y255A); test: as §7; format: cell-based, COS-7
[20] = target: C-X-C chemokine receptor type 4 (Homo sapiens, UniProt P61073, S263A); test: (§8) Displacement of [125I]12G5 antibody from transmembrane domain 6 of human CXCR4 S263A mutant expressed in COS7 cells; format: cell-based, COS-7
[21] = tested on: C-X-C chemokine receptor type 4 (Homo sapiens), P61073 [S263A]; test: as §8; format: cell-based; settings: COS-7
[22] = tested on: Human immunodeficiency virus 1; test: Antiviral activity against HIV1 NDK infected in U87.CD4 cells expressing human CXCR4 D262N mutant; format: functional, organism-based; settings: Human immunodeficiency virus 1, NDK
[23] = tested on: Human immunodeficiency virus 1; test: Antiviral activity against HIV1 NL43 infected in U87.CD4 cells expressing human CXCR4 E288A mutant; format: functional, organism-based
[24] = tested on: Human immunodeficiency virus 1; test: Antiviral activity against HIV1 NDK infected in U87.CD4 cells expressing human wild type CXCR4; format: functional, organism-based; settings: Human immunodeficiency virus 1, NDK
[25] = target: C-X-C chemokine receptor type 4 (Homo sapiens, UniProt P61073); test: Displacement of [125I]12G5 antibody from human wild type CXCR4 expressed in COS7 cells; format: cell-based, COS-7
[26] = tested on: C-X-C chemokine receptor type 4 (Homo sapiens), P61073 [Y255A]; test: (§9) Antagonist activity at human CXCR4 Y255A mutant expressed in COS7 cells coexpressing G protein Gqi4myr assessed as inhibition of CXCL12-induced phosphatidylinositol turnover; format: functional, cell-based; settings: COS-7
[27] = target: T2, C-X-C chemokine receptor type 4; test: as §9; format: functional, cell-based, COS-7
[28] = tested on: Human immunodeficiency virus 1; test: Antiviral activity against HIV1 NDK infected in U87.CD4 cells expressing human CXCR4 E288A mutant; format: functional, organism-based; settings: Human immunodeficiency virus 1, NDK
[29] = target: C-X-C chemokine receptor type 4 (Homo sapiens, UniProt P61073, L120F); test: (§10) Antagonist activity at human CXCR4 L120F mutant expressed in COS7 cells coexpressing G protein Gqi4myr assessed as inhibition of CXCL12-induced phosphatidylinositol turnover; format: functional, cell-based, COS-7
[30] = tested on: C-X-C chemokine receptor type 4 (Homo sapiens), P61073 [L120F]; test: as §10; format: functional, cell-based; settings: COS-7
[31] = target: C-X-C chemokine receptor type 4 (Homo sapiens, UniProt P61073, D187A); test: (§11) Displacement of [125I]12G5 antibody from extracellular loop 2 of human CXCR4 D187A mutant expressed in COS7 cells; format: cell-based, COS-7
[32] = tested on: C-X-C chemokine receptor type 4 (Homo sapiens), P61073 [D187A]; test: as §11; format: cell-based; settings: COS-7
[33] = target: C-X-C chemokine receptor type 4 (Homo sapiens, UniProt P61073, A175F); test: (§12) Displacement of [125I]12G5 antibody from extracellular loop 2 of human CXCR4 A175F mutant expressed in COS7 cells; format: cell-based, COS-7
[34] = tested on: C-X-C chemokine receptor type 4 (Homo sapiens), P61073 [A175F]; test: as §12; format: cell-based; settings: COS-7
[35] = tested on: Human immunodeficiency virus 1; test: Antiviral activity against HIV1 NDK infected in U87.CD4 cells expressing human CXCR4 D171ND262N mutant; format: functional, organism-based; settings: Human immunodeficiency virus 1, NDK
[36] = target: C-X-C chemokine receptor type 4 (Homo sapiens, UniProt P61073, I284A); test: (§13) Displacement of [125I]12G5 antibody from transmembrane domain 7 of human CXCR4 I284A mutant expressed in COS7 cells; format: cell-based, COS-7
[37] = tested on: C-X-C chemokine receptor type 4 (Homo sapiens), P61073 [I284A]; test: as §13; format: cell-based; settings: COS-7
[38] = tested on: C-X-C chemokine receptor type 4 (Homo sapiens), P61073 [V196A]; test: (§14) Displacement of [125I]12G5 antibody from transmembrane domain 5 of human CXCR4 V196A mutant expressed in COS7 cells; format: cell-based; settings: COS-7
[39] = target: T1, C-X-C chemokine receptor type 4; test: as §14; format: cell-based, COS-7
[40] = tested on: C-X-C chemokine receptor type 4 (Homo sapiens), P61073 [I259W]; test: (§15) Antagonist activity at human CXCR4 I259W mutant expressed in COS7 cells coexpressing G protein Gqi4myr assessed as inhibition of CXCL12-induced phosphatidylinositol turnover; format: functional, cell-based; settings: COS-7
[41] = target: C-X-C chemokine receptor type 4 (Homo sapiens, UniProt P61073, I259W); test: as §15; format: functional, cell-based, COS-7
Chain of C-X-C chemokine receptor type 4 (Homo sapiens, UniProt P61073, I259W) (P61073 whole entry I259W): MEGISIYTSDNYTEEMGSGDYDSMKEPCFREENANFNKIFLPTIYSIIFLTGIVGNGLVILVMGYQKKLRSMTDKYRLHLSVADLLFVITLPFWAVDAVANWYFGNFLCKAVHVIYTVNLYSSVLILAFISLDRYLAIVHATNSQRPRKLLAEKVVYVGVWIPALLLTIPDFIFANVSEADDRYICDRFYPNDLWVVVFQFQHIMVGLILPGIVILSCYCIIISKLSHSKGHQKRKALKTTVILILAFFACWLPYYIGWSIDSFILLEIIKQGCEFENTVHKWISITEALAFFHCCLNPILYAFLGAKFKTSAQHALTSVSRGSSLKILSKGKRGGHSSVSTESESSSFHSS

Chain of C-X-C chemokine receptor type 4 (Homo sapiens), P61073 [V196A] (P61073 whole entry V196A, the tested form may be a part): as the sequence (P61073 whole entry I259W) above, with V196A, W259I counted along it
T1 sequence (P61073 whole entry V196A): as the sequence (P61073 whole entry I259W) above, with V196A, W259I counted along it
Chain of C-X-C chemokine receptor type 4 (Homo sapiens, UniProt P61073) (P61073 whole entry): as the sequence (P61073 whole entry I259W) above, with W259I counted along it
Chain of C-X-C chemokine receptor type 4 (Homo sapiens), P61073 [Y255A] (P61073 whole entry Y255A, the tested form may be a part): as the sequence (P61073 whole entry I259W) above, with Y255A, W259I counted along it
T2 sequence (P61073 whole entry Y255A, the tested form may be a part): as the sequence (P61073 whole entry I259W) above, with Y255A, W259I counted along it
Chain of C-X-C chemokine receptor type 4 (Homo sapiens, UniProt P61073, S263A) (P61073 whole entry S263A, the tested form may be a part): as the sequence (P61073 whole entry I259W) above, with W259I, S263A counted along it
Chain of C-X-C chemokine receptor type 4 (Homo sapiens), P61073 [S263A] (P61073 whole entry S263A): as the sequence (P61073 whole entry I259W) above, with W259I, S263A counted along it
Chain of C-X-C chemokine receptor type 4 (Homo sapiens), P61073 [F172A] (P61073 whole entry F172A): as the sequence (P61073 whole entry I259W) above, with F172A, W259I counted along it
Chain of C-X-C chemokine receptor type 4 (Homo sapiens, UniProt P61073, F172A) (P61073 whole entry F172A, the tested form may be a part): as the sequence (P61073 whole entry I259W) above, with F172A, W259I counted along it
Chain of C-X-C chemokine receptor type 4 (Homo sapiens), P61073 [G207W] (P61073 whole entry G207W, the tested form may be a part): as the sequence (P61073 whole entry I259W) above, with G207W, W259I counted along it
Chain of C-X-C chemokine receptor type 4 (Homo sapiens, UniProt P61073, G207W) (P61073 whole entry G207W): as the sequence (P61073 whole entry I259W) above, with G207W, W259I counted along it
Chain of C-X-C chemokine receptor type 4 (Homo sapiens), P61073 [I284A] (P61073 whole entry I284A, the tested form may be a part): as the sequence (P61073 whole entry I259W) above, with W259I, I284A counted along it
Chain of C-X-C chemokine receptor type 4 (Homo sapiens, UniProt P61073, I284A) (P61073 whole entry I284A, the tested form may be a part): as the sequence (P61073 whole entry I259W) above, with W259I, I284A counted along it
Chain of C-X-C chemokine receptor type 4 (Homo sapiens, UniProt P61073, D187A) (P61073 whole entry D187A): as the sequence (P61073 whole entry I259W) above, with D187A, W259I counted along it
Chain of C-X-C chemokine receptor type 4 (Homo sapiens), P61073 [D187A] (P61073 whole entry D187A): as the sequence (P61073 whole entry I259W) above, with D187A, W259I counted along it
Chain of C-X-C chemokine receptor type 4 (Homo sapiens, UniProt P61073, D262N) (P61073 whole entry D262N): as the sequence (P61073 whole entry I259W) above, with W259I, D262N counted along it
Chain of C-X-C chemokine receptor type 4 (Homo sapiens), P61073 [D262N] (P61073 whole entry D262N): as the sequence (P61073 whole entry I259W) above, with W259I, D262N counted along it
Chain of C-X-C chemokine receptor type 4 (Homo sapiens, UniProt P61073, H281A) (P61073 whole entry H281A): as the sequence (P61073 whole entry I259W) above, with W259I, H281A counted along it
Chain of C-X-C chemokine receptor type 4 (Homo sapiens), P61073 [H281A] (P61073 whole entry H281A, the tested form may be a part): as the sequence (P61073 whole entry I259W) above, with W259I, H281A counted along it
Chain of C-X-C chemokine receptor type 4 (Homo sapiens), P61073 [H113A] (P61073 whole entry H113A, the tested form may be a part): as the sequence (P61073 whole entry I259W) above, with H113A, W259I counted along it
Chain of C-X-C chemokine receptor type 4 (Homo sapiens, UniProt P61073, H113A) (P61073 whole entry H113A): as the sequence (P61073 whole entry I259W) above, with H113A, W259I counted along it
Chain of C-X-C chemokine receptor type 4 (Homo sapiens, UniProt P61073, L120F) (P61073 whole entry L120F): as the sequence (P61073 whole entry I259W) above, with L120F, W259I counted along it
Chain of C-X-C chemokine receptor type 4 (Homo sapiens), P61073 [L120F] (P61073 whole entry L120F): as the sequence (P61073 whole entry I259W) above, with L120F, W259I counted along it
Chain of C-X-C chemokine receptor type 4 (Homo sapiens), P61073 [I259W] (P61073 whole entry I259W): as the sequence (P61073 whole entry I259W) above
Chain of C-X-C chemokine receptor type 4 (Homo sapiens), P61073 [A175F] (P61073 whole entry A175F): as the sequence (P61073 whole entry I259W) above, with A175F, W259I counted along it
Chain of C-X-C chemokine receptor type 4 (Homo sapiens, UniProt P61073, A175F) (P61073 whole entry A175F): as the sequence (P61073 whole entry I259W) above, with A175F, W259I counted along it

SMILES: c1ccc(CNCc2ccc(CN3CCCNCCNCCCNCC3)cc2)nc1
- logKi [1]: -6.88
- Ki [2]: 130 nM
- IC50 [3]: 36000 nM
- logIC50 [4]: -7.71
- Ki [5]: 200 nM
- IC50 [6]: 4040 nM
- IC50 [7]: 37 nM
- Ki [8]: 7800 nM
- logIC50 [9]: -5.11
- IC50 [10]: 164000 nM
- logKi [11]: -5.6
- Ki [12]: 2500 nM
- Ki [13]: 1600 nM
- logIC50 [14]: -5.8
- Ki [15]: 560 nM
- logKi [16]: -6.25
- IC50 [17]: 3820 nM
- logKi [18]: -6.35
- Ki [19]: 450 nM
- Ki [20]: 530 nM
- logKi [21]: -6.27
- IC50 [22]: 5380 nM
- Activity [23]: inactive
- IC50 [24]: 2700 nM
- Ki [25]: 110 nM
- logKi ([25]; COS-7): -6.95
- logIC50 [26]: -7.79
- Ki [27]: 20 nM
- IC50 [28]: > 5500 nM
- Ki [29]: 10 nM
- logIC50 [30]: -8.18
- Ki [31]: 530 nM
- logKi [32]: -6.27
- Ki [33]: 215000 nM
- logKi [34]: -3.67
- IC50 [35]: 4640 nM
- Ki [36]: 46000 nM
- logKi [37]: -4.34
- logKi [38]: -5.74
- Ki [39]: 1800 nM
- logIC50 [40]: -7.08
- Ki [41]: 80 nM
